Measurements: the NIST ThermoML archive (doi:10.1016/j.jct.2015.11.023)

How the values were obtained:
[1] = refractive index (Na D-line) (dimensionless); conditions: 101.33 kPa, Liquid, Standard Abbe refractometry
[2] = for surface tension liquid-gas: Maximal bubble pressure; for mass density: 101.33 kPa, Liquid, Vibrating tube method

CCCC[n+]1ccccc1.N#C[N-]C#N [1-butylpyridinium dicyanamide]
Conditions	mass density, [2] [kg/m3]	refractive index, [1]	surface tension liquid-gas, [2] [mN/m]
303.15 K	1065.76	1.5325	55.5
308.15 K	1062.7	1.5309	55.2
313.15 K	1059.66	1.5285	54.9
318.15 K	1056.64	1.527	54.5
323.15 K	1053.63	1.5253	54.2
328.15 K	1050.63	1.5237	53.9
333.15 K	1047.66	1.5217	53.6
338.15 K	1044.69	1.5202	53.4

CCCCC[n+]1ccccc1.N#C[N-]C#N [1-pentylpyridinium dicyanamide]
Conditions	mass density, [2] [kg/m3]	refractive index, [1]	surface tension liquid-gas, [2] [mN/m]
303.15 K	1050.05	1.5287	53
308.15 K	1047.03	1.5272	52.7
313.15 K	1044.03	1.5258	52.4
318.15 K	1041.04	1.5243	52.1
323.15 K	1038.07	1.523	51.7
328.15 K	1035.11	1.5212	51.4
333.15 K	1032.17	1.5194	51.2
338.15 K	1029.24	1.5179	51

CCC[n+]1ccccc1.N#C[N-]C#N [1-propylpyridinium dicyanamide]
Conditions	mass density, [2] [kg/m3]	refractive index, [1]	surface tension liquid-gas, [2] [mN/m]
303.15 K	1086.92	1.539	57.7
308.15 K	1083.79	1.5374	57.4
313.15 K	1080.69	1.5356	57
318.15 K	1077.6	1.5342	56.7
323.15 K	1074.52	1.5329	56.4
328.15 K	1071.46	1.5312	56.1
333.15 K	1068.42	1.5293	55.7
338.15 K	1065.4	1.5276	55.4
